According to patent US20210330611A1, “THERAPY FOR NEUROLOGICAL DISEASES/DISORDERS” (priority 2020, published 2021):
Counter-ions that a name gives are not always drawn.

Assays:
[1] = system: primary rat microglia; test: Cell toxicity (dead cells, size <150 μm2) in coated fibrin (cFib) assay; details: primary HTS, 10 μM, fibrin assay, dead cells size <150 μm2;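 further: share of dead cells sized under 150 µm2 at 10 µM in fibrin-stimulated microglia HTS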
[2] = system: fibrin- and LPS-induced microglia activation; test: cells; assay type: cell-based, rat; details: primary HTS, 10 μM
[3] = system: LPS-induced microglia activation; test: Image-based assay of LPS-induced microglia activation (HTS and dose response); assay type: cell-based, rat; details: primary HTS, 10 μM, LPS-stimulated primary microglia; for inhibition at 10 µM: Rattus norvegicus, Microglia, read-out: LPS % inhibition
[4] = system: primary rat microglia; test: Cell toxicity (dead cells, size <150 μm2) in LPS assay; details: primary HTS, 10 μM, LPS assay, dead cells size <150 μm2
[5] = system: fibrin-induced microglia activation; test: Image-based assay of fibrin-induced microglia activation (HTS and dose response); assay type: cell-based, rat; details: primary HTS, 10 μM, fibrin-stimulated primary microglia; for inhibition at 10 µM: Rattus norvegicus, Microglia, read-out: Fibrin % inhibition

SMILES | Fibrin % cell toxicity [1] [%] | Quadrant (FIG. 5b) [2] | inhibition at 10 µM [3] [%] | LPS % cell toxicity [4] [%] | inhibition at 10 µM [5] [%] | LPS % inhibition [3] [%] | Fibrin % inhibition [5] [%]
CN(Cc1ccc(C(C)(C)C)cc1)Cc1cccc2ccccc12 [Butenafine] | 1 | Q4 | -8 | 0 | -4 | – | –
Clc1ccc(CCC(Cn2ccnc2)Sc2c(Cl)cccc2Cl)cc1 (stereo not drawn) [Butoconazole] | 0 | Q4 | 10 | 0 | -51 | – | –
COc1ccc(O)c(C(C)(C)C)c1 [Butylated Hydroxyanisole] | 1 | Q4 | – | 0 | – | 26 | −17
CCCCOC(=O)c1ccc(O)cc1 [Butylparaben] | 1 | Q4 | 20 | 0 | -16 | – | –
C=CCN1C[C@H](C(=O)N(CCCN(C)C)C(=O)NCC)C[C@@H]2c3cccc4[nH]cc(c34)C[C@H]21 [Cabergoline] | 1 | Q4 | 33 | 1 | 20 | – | –
C=C1CC[C@H](O)C/C1=C/C=C1\CCC[C@]2(C)[C@@H]([C@H](C)CCCC(C)(C)O)CC[C@@H]12 [Calcidiol] | 1 | Q4 | 8 | 0 | 14 | – | –
C=C1/C(=C\C=C2/CCC[C@]3(C)[C@@H]([C@H](C)/C=C/[C@@H](O)C4CC4)CC[C@@H]23)C[C@@H](O)C[C@@H]1O [Calcipotriol] | 1 | Q4 | -8 | 0 | 2 | – | –
C=C1/C(=C\C=C2/CCC[C@]3(C)[C@@H]([C@H](C)CCCC(C)(C)O)CC[C@@H]23)C[C@@H](O)C[C@@H]1O [Calcitriol] | 0 | Q4 | 0 | 1 | -46 | – | –
O=C([O-])C(O)[C@H](O)[C@@H](O)[C@H](O)[C@H](O)CO.O=C([O-])C(O)[C@H](O)[C@@H](O)[C@H](O)[C@H](O)CO.[Ca+2] (stereo partly drawn) [Calcium Gluceptate] | 1 | Q4 | – | 0 | – | 8 | 8
CCN(CC)CCNC(C(=O)OCCC(C)C)c1ccccc1 (stereo not drawn) [Camylofine Dihydrochloride] | 1 | Q4 | 15 | 1 | -27 | – | –
CCOc1nc2cccc(C(=O)OC(C)OC(=O)OC3CCCCC3)c2n1Cc1ccc(-c2ccccc2-c2nn[nH]n2)cc1 (stereo not drawn) [Candesartan Cilextil] | 1 | Q4 | – | 0 | – | 10 | −5
CCOc1nc2cccc(C(=O)O)c2n1Cc1ccc(-c2ccccc2-c2nnn[nH]2)cc1 [Candesartan] | 1 | Q4 | 11 | 0 | 9 | – | –
C[C@]12CCC(=O)C=C1C=C[C@@H]1[C@@H]2CC[C@@]2(C)[C@H]1CC[C@@]21CCC(=O)O1 [Canrenone] | 1 | Q4 | 19 | 0 | -10 | – | –
COc1cc(C(=O)NCCCCCC(=O)O)cc(OC)c1OC [Capobenic Acid] | 1 | Q4 | 16 | 0 | 9 | – | –
COc1cc(CNC(=O)CCCC/C=C/C(C)C)ccc1O [Capsaicin] | 1 | Q4 | 9 | 0 | -45 | – | –
C[C@H](CS)C(=O)N1CCC[C@H]1C(=O)O [Captopril] | 1 | Q4 | 12 | 1 | -11 | – | –
C[N+](C)(C)CCOC(N)=O [Carbachol] | 1 | Q4 | 6 | 0 | -18 | – | –
COC(=O)N/N=C/c1c[n+]([O-])c2ccccc2[n+]1[O-] [Carbadox] | 1 | Q4 | 11 | 1 | -2 | – | –

SMILES | Fibrin % cell toxicity [1] [%] | Quadrant (FIG. 5b) [2] | inhibition at 10 µM [3] [%] | LPS % cell toxicity [4] [%] | inhibition at 10 µM [5] [%] | LPS % inhibition [3] [%] | Fibrin % inhibition [5] [%]
NC(=O)N1c2ccccc2C=Cc2ccccc21 [Carbamazepine] | 0 | Q4 | 4 | 0 | -25 | – | –
CC1(C)S[C@@H]2[C@H](NC(=O)C(C(=O)O)c3ccccc3)C(=O)N2[C@H]1C(=O)O (stereo partly drawn) [Carbenicillin] | 1 | Q4 | 4 | 0 | -4 | – | –
CC1(C)[C@@H](OC(=O)CCC(=O)O)CC[C@]2(C)[C@H]3C(=O)C=C4[C@@H]5C[C@@](C)(C(=O)O)CC[C@]5(C)CC[C@@]4(C)[C@]3(C)CC[C@@H]12 [Carbenoxolone Sodium] | 0 | Q4 | 6 | 0 | 16 | – | –
CCOC(=O)n1ccn(C)c1=S [Carbimazole] | 0 | Q4 | 8 | 0 | -32 | – | –
CN(C)CCOC(c1ccc(Cl)cc1)c1ccccn1 (stereo not drawn) [Carbinoxamine] | 0 | Q4 | -3 | 0 | 6 | – | –
NC(=O)N[C@@H](CCC(=O)O)C(=O)O [Carglumic Acid] | 1 | Q4 | 6 | 0 | 1 | – | –
CCCC(C)(COC(N)=O)COC(=O)NC(C)C (stereo not drawn) [Carisoprodol] | 0 | Q4 | -1 | 0 | 1 | – | –
CCCCCCNC(=O)n1cc(F)c(=O)[nH]c1=O [Carmofur] | 0 | Q4 | 17 | 0 | -13 | – | –
O=c1[nH]c(=O)c2ccccc2o1 [Carsalam] | 0 | Q4 | 11 | 1 | -7 | – | –
CC(C)(C)NCC(O)COc1cccc2c1CCC(=O)N2 (stereo not drawn) [Carteolol] | 0 | Q4 | 7 | 0 | 12 | – | –
NS(=O)(=O)c1ccc(C(=O)O)cc1 [Carzenide] | 1 | Q4 | 14 | 0 | -24 | – | –
N[C@@H](C(=O)N[C@@H]1C(=O)N2C(C(=O)O)=C(Cl)CS[C@H]12)c1ccccc1 [Cefaclor] | 1 | Q4 | 19 | 0 | -14 | – | –
CC1=C(C(=O)O)N2C(=O)[C@@H](NC(=O)[C@H](N)c3ccc(O)cc3)[C@H]2SC1 [Cefadroxil] | 0 | Q4 | 3 | 0 | 1 | – | –
NC(=O)c1cc[n+](CC2=C(C(=O)[O-])N3C(=O)[C@@H](NC(=O)Cc4cccs4)[C@H]3SC2)cc1 [Cefalonium] | 1 | Q4 | 11 | 0 | 9 | – | –
CC(=O)OCC1=C(C(=O)O)N2C(=O)[C@@H](NC(=O)Cc3cccs3)[C@H]2SC1 [Cefalotin] | 1 | Q4 | 1 | 0 | 1 | – | –
Cn1nnnc1SCC1=C(C(=O)O)N2C(=O)[C@@H](NC(=O)[C@H](OC=O)c3ccccc3)[C@H]2SC1 [Cefamandole Nafate] | 0 | Q4 | 12 | 0 | -3 | – | –
Cn1nnnc1SCC1=C(C(=O)O)N2C(=O)[C@@H](NC(=O)[C@H](O)c3ccccc3)[C@H]2SC1 [Cefamandole Sodium] | 1 | Q4 | 16 | 0 | -12 | – | –
CC(=O)OCC1=C(C(=O)O)N2C(=O)[C@@H](NC(=O)CSc3ccncc3)[C@H]2SC1 [Cefapirin] | 0 | Q4 | 7 | 0 | -26 | – | –
